For 102 molecules, Kd results are on record in PubChem BioAssay AID1552 (Sanford-Burnham Center for Chemical Genomics, 2009).

Calls of active or inactive are those of the source. How the calls were made is not given here.

The target of the assay is Ubiquitin-conjugating enzyme E2 N (Homo sapiens) (UniProt P61088). Nature of the assay: NMR detection of UBE2N ligand binding – biophysical, purified protein (AID 1552). The conditions noted are these: NMR binding to purified UBE2N.
Sequence of Ubiquitin-conjugating enzyme E2 N (Homo sapiens) (P61088 whole entry, looked up): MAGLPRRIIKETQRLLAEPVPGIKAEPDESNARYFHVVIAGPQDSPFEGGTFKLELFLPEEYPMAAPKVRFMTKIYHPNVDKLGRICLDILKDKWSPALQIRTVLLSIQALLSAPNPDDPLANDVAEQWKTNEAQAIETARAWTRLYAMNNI
As usually defined, the Kd is a measure of binding affinity in units of concentration. For `CC[C@H](CCC(C)[C@H]1CCC2C3CCC4C[C@@H](O)CC[C@]4(C)C3CC[C@@]21C)C(C)C` (some centres not stated), the Kd is > 4 mM (inactive).

With `CCNC(=O)CC[C@H](N)C(=O)O`, the Kd is > 4 mM (inactive).

For the molecule `CSc1nc(=O)[nH]c2c1CCC2`, the Kd was > 4 mM (inactive).

In the case of `CCOc1nc(C)ccc1-c1noc(-c2ccco2)n1`, the Kd is > 4 mM (inactive).

Regarding `CCCS(=O)(=O)N1CCN(c2ccccc2F)CC1`, the Kd was > 4 mM (inactive).

For the molecule `Clc1ccc(SCCn2cncn2)cc1`, the Kd was > 4 mM (inactive).

Take `Cc1c(C(=O)Nc2ccncc2)oc2c1C(=O)CC(C)(C)C2`: the Kd is > 4 mM (inactive).

In the case of `O=C(O)c1cccnc1N1CCCC1`, the Kd was > 4 mM (inactive).

As for `NC(=S)CN1CCCC1=O`, the Kd was > 4 mM (inactive).

With `O=C(O)CNC(=O)c1ccc([N+](=O)[O-])cc1`, the Kd was > 4 mM (inactive).

Take `Cc1cc(C(=O)c2c(C)nn(C)c2Cl)n(C)n1`: the Kd is > 4 mM (inactive).

As for `Cc1cc(C)n2nc(Cc3ccccc3)nc2n1`, the Kd is > 4 mM (inactive).

For `O=C1C2=C(SCCS2)C(=O)N1CCCO`, the Kd was > 4 mM (inactive).

For the molecule `O=C(O)c1ccc2c(c1)OCCO2`, the Kd was > 4 mM (inactive).

Consider `O=C(Nc1ccccn1)C(=O)N1CCCC1`, for which the Kd was > 4 mM (inactive).

As for `CCC(C)OC1CCS(=O)(=O)C1` (configuration not stated), the Kd is > 4 mM (inactive).

As for `N#CCSc1nc(-c2ccccc2)cs1`, the Kd is > 4 mM (inactive).

As for `Nc1ccccc1N1CCOCC1`, the Kd was > 4 mM (inactive).

In the case of `Cc1nc(NCc2ccco2)nc2c1C(=O)CC(C)C2` (configuration not stated), the Kd is > 4 mM (inactive).

On to `NC(=O)CSc1ccc(Br)cc1`, for which the Kd was > 4 mM (inactive).

As to `CN1C(=O)c2ccc(N3CCCC3)cc2C1=O`, the Kd was > 4 mM (inactive).

Take `O=C(CSc1nnc2ccccn12)N1CCOCC1`: the Kd was > 4 mM (inactive).

Consider `O=c1ccc2nc3ccccc3c(=O)n2[nH]1`, for which the Kd is > 4 mM (inactive).

Take `CCC(=O)n1nc(-c2ccco2)nc1N`: the Kd is > 4 mM (inactive).

As to `O=CN1CCN(C(=O)c2ccco2)CC1`, the Kd was > 4 mM (inactive).

`COC1C(O)C(O)C(O)[C@@H](O)C1O` (some centres not stated): the Kd is > 4 mM (inactive).

`Cc1cc2nc3c(=O)[nH]c(=O)nc-3n(CC(O)C(O)C(O)CO)c2cc1C` (configuration not stated): the Kd is > 4 mM (inactive).

Take `COc1cc(C(=S)N2CCC(C(N)=O)CC2)ccc1O`: the Kd was > 4 mM (inactive).

Regarding `COc1ccc(Cc2nccc3cc(OC)c(OC)cc23)cc1OC`, the Kd was > 4 mM (inactive).

As to `Clc1ccccc1OCc1nc(-c2ccccn2)no1`, the Kd was > 4 mM (inactive).

On to `CC[C@H]1CN2CCc3cc(OC)c(OC)cc3C2C[C@@H]1CC1NCCc2cc(OC)c(OC)cc21` (some centres not stated), for which the Kd is > 4 mM (inactive).

As for `Brc1ccc(-c2nc(-c3ccncc3)no2)o1`, the Kd is > 4 mM (inactive).

As to `O=C(Nc1c[nH]c(=O)[nH]c1=O)c1ccccc1F`, the Kd is > 4 mM (inactive).

As to `NC(=O)c1cccc2c(=O)oc3ccccc3c12`, the Kd was > 4 mM (inactive).

As for `CC(=O)/C=C\[C@@H]1[C@@]2(C)CCCC(C)(C)C2CC[C@@]1(C)O` (some centres not stated), the Kd is > 4 mM (inactive).

As for `O=S1(=O)CCC(N2CCCCC2)C1` (configuration not stated), the Kd is > 4 mM (inactive).

As to `COc1cc(O)c2c(=O)cc(-c3ccc(OC)c(-c4c(O)cc(O)c5c(=O)cc(-c6ccc(O)cc6)oc45)c3)oc2c1`, the Kd is > 4 mM (inactive).

With `O=C1NC(=O)/C(=C\c2ccncc2)S1`, the Kd is > 4 mM (inactive).

Consider `CNC(=O)C1CC(=O)N(c2ccc(O)cc2)C1` (configuration not stated), for which the Kd is > 4 mM (inactive).

For `CCOC(=O)CN1C(=O)c2ccccc2C1=O`, the Kd was > 4 mM (inactive).

`CC1(O)CC2C=CC1C2` (configuration not stated): the Kd is > 4 mM (inactive).

On to `O=C(O)CCSc1nc2ccccc2s1`, for which the Kd was > 4 mM (inactive).

Turning to `Cc1c(C)[n+](=O)c(-c2cccs2)c(C)n1[O-]`, the Kd is > 4 mM (inactive).

For the molecule `Cc1cn(C(=O)CN2C(=O)c3ccccc3C2=O)c(C)n1`, the Kd is > 4 mM (inactive).

In the case of `CCOC(=O)c1c(C)nc2sccn12`, the Kd was > 4 mM (inactive).

With `CCC(C)C(=O)O[C@H]1[C@H](O)C2C(CN3CC(C)CCC3[C@@]2(C)O)C2C[C@]34O[C@]5(O)C(OC(=O)C(C)(O)C(C)O)CC[C@@]3(C)C5C(OC(C)=O)[C@@H](OC(C)=O)C4[C@@]21O` (some centres not stated), the Kd is > 4 mM (inactive).

As to `COC(=O)c1sc(N)nc1C`, the Kd was > 4 mM (inactive).

As for `C=CCn1c(-c2ccc(O)cc2)n[nH]c1=S`, the Kd is > 4 mM (inactive).

As for `CC1(C)CC(=O)c2sc(N)nc2C1`, the Kd was > 4 mM (inactive).

With `O=C(Nc1ccon1)c1cccc(C(F)(F)F)c1`, the Kd is > 4 mM (inactive).

Regarding `CCSc1nnc(-c2ccccc2N)c(=O)[nH]1`, the Kd is > 4 mM (inactive).

Take `Cc1cn2c(-c3cccnc3)nnc2s1`: the Kd was > 4 mM (inactive).

On to `COc1cc2occc2c2oc(=O)ccc12`, for which the Kd is > 4 mM (inactive).

`O=C(O)CCC(=O)c1c[nH]c2ccccc12`: the Kd is > 4 mM (inactive).

Turning to `FC(F)(F)c1cc(-c2ccco2)nc(N2CCOCC2)n1`, the Kd was > 4 mM (inactive).

Regarding `COc1cc(OC)c(-c2c(OC)cc(OC)cc2OC)c(OC)c1`, the Kd was > 4 mM (inactive).

Consider `CCSc1nnc2[nH]c(=O)cc(C)n12`, for which the Kd was > 4 mM (inactive).

On to `CC(=O)Nc1ccccc1-c1ccccc1NC(C)=O`, for which the Kd is > 4 mM (inactive).

Turning to `O=C(NCN1CCOCC1)c1cnccn1`, the Kd is > 4 mM (inactive).

Take `NC1=NC(=O)/C(=C\c2ccco2)S1`: the Kd was > 4 mM (inactive).

For `CC(=O)Nc1nc(C)c(C(C)=O)s1`, the Kd is > 4 mM (inactive).

Take `O=C(Cc1ccccc1)Nc1c[nH]c(=O)[nH]c1=O`: the Kd was > 4 mM (inactive).

For the molecule `COc1ccccc1-c1n[nH]c(=O)o1`, the Kd is > 4 mM (inactive).

On to `O=C(Nc1ccccc1)N1CCOCC1`, for which the Kd was > 4 mM (inactive).

Turning to `N#Cc1cnn(-c2ccc(Cl)cc2)c1N`, the Kd is > 4 mM (inactive).

As to `Cn1cc(Cl)c(C(=O)NC2CCCCCC2)n1`, the Kd is > 4 mM (inactive).

For `N#CCCn1ccnc1-c1ccccc1`, the Kd is > 4 mM (inactive).

For the molecule `CS(=O)(=O)N1CCN(c2ncccn2)CC1`, the Kd is > 4 mM (inactive).

As for `Cc1cc(C(=O)Nc2cccnc2)cs1`, the Kd was > 4 mM (inactive).

In the case of `O=C1CSC(=Nc2ccccc2[N+](=O)[O-])N1`, the Kd is > 4 mM (inactive).

As to `COc1ccc2[nH]cc(CN(C)C)c2c1`, the Kd was > 4 mM (inactive).

As for `Cc1ccsc1/C=c1\sc2ncnn2c1=O`, the Kd is > 4 mM (inactive).

As for `Cc1cc(=O)[nH]c(NCC(=O)O)n1`, the Kd was > 4 mM (inactive).

Take `CC(=O)OCc1cc(=O)n(C)c(=O)n1C`: the Kd was > 4 mM (inactive).

Turning to `CC(=O)Nc1ccn(Cc2c(F)cccc2Cl)n1`, the Kd is > 4 mM (inactive).

For the molecule `Cc1c(C(=O)NCc2ccccn2)oc2ccccc12`, the Kd was > 4 mM (inactive).

For the molecule `Nc1nc(-c2ccc(O)cc2)cs1`, the Kd is > 4 mM (inactive).

Consider `COc1cc([C@@H]2c3cc4c(cc3[C@H](O)[C@H]3COC(=O)[C@H]23)OCO4)cc(OC)c1OC`, for which the Kd is > 4 mM (inactive).

As for `Cc1nc2nc(Cc3ccccc3)[nH]n2c(=O)c1Cl`, the Kd was > 4 mM (inactive).

As for `CN1CCN(Cc2cccnc2)CC1`, the Kd was > 4 mM (inactive).

As for `Cc1cccc(-n2c(N)cc(=O)[nH]c2=S)c1`, the Kd is > 4 mM (inactive).

In the case of `Cc1cc(F)c(F)c(C(=O)NC2CC2)c1Cl`, the Kd is > 4 mM (inactive).

`NC(=O)CSc1ncnc2ccccc12`: the Kd is > 4 mM (inactive).

`O=C1CSC(=Nc2cccc(C(=O)O)c2)N1`: the Kd is > 4 mM (inactive).

As for `CCC1C(=O)OCC1Cc1cncn1C` (configuration not stated), the Kd is > 4 mM (inactive).

In the case of `NS(=O)(=O)c1ccc(NC(=O)/C=C\C(=O)O)cc1`, the Kd is > 4 mM (inactive).

Consider `NC(=O)c1c[nH]c2ccccc12`, for which the Kd is > 4 mM (inactive).

Turning to `Cc1cc(N2CCCC2=O)c(N)cc1N`, the Kd was > 4 mM (inactive).

Take `O=C(O)Cn1cc(C(F)(F)F)ccc1=O`: the Kd is > 4 mM (inactive).

Regarding `CC(=O)N(c1ccccc1)C1C=CS(=O)(=O)C1` (configuration not stated), the Kd was > 4 mM (inactive).

Regarding `C=CCCCCCCCCCCCc1ccco1`, the Kd is > 4 mM (inactive).

Consider `Cc1cc(SCC(=O)Nc2nccs2)nc(=O)[nH]1`, for which the Kd is > 4 mM (inactive).

In the case of `Cc1nnc(-n2cnc3ccccc32)c2ccccc12`, the Kd was > 4 mM (inactive).

Consider `Cc1nc(CC(=O)O)c(-c2ccccc2)s1`, for which the Kd is > 4 mM (inactive).

Take `CC(=O)O[C@@H]1C=C[C@@]2(C)C(C[C@@H](OC(C)=O)[C@@]3(C)C4=CC(=O)O[C@@H](c5ccoc5)[C@]4(C)CCC23)C1(C)C` (some centres not stated): the Kd was > 4 mM (inactive).

As to `CC(=O)c1cccc(NC(=O)N2CCc3ccccc3C2)c1`, the Kd was > 4 mM (inactive).

`Cc1ccnc(NS(=O)(=O)c2cccs2)c1`: the Kd was > 4 mM (inactive).

For `COc1cc(OC)c2c(=O)c(O)c(-c3ccc(OC)c(OC)c3)oc2c1`, the Kd was > 4 mM (inactive).

In the case of `O=C(c1ccccc1)c1ccccc1C(=O)N1CCOCC1`, the Kd is > 4 mM (inactive).

For the molecule `COC(=O)C[C@H]1C(C)(C)C(=O)[C@@H]2CC3=C4CC(=O)O[C@@H](c5ccoc5)[C@]4(C)CCC3C1(C)C2=O` (some centres not stated), the Kd is > 4 mM (inactive).

As to `Cn1cnc2c(cnn2-c2ccccc2)c1=O`, the Kd is > 4 mM (inactive).

As to `Cc1ccc(NC(=O)c2ccccc2)s1`, the Kd is > 4 mM (inactive).
